Series [1] has as its system APP. As to the kind of experiment: APP, C99, C83 and sAPP levels in 751APPSW CHO cells (immunoblot, immunostaining). Conditions: 751APPSW CHO clone. In kind it is cell-based, human. On the technique in general: Immunoblotting shows a protein as a band on a membrane.
Series [2] addresses T1, Aβ40 (Homo sapiens, UniProt P05067).
T1 construct: host or cells: chemical solid-phase peptide synthesis (no expression host)
In words: Oligomerization assay. In kind it is biochemical. Conditions: 100 μM Aβ40, 10 μM compound, 24 h; for amount of oligomers on SDS-PAGE: lanes 3-5. The protocol:
(§1) […] monomerized synthetic Aβ40 was incubated in 0.1M Tris pH 7.0, T=37° C. for 8 days in the presence of 0-100 μM concentration of compounds. […] An arrow indicates Aβ monomers clustered in ill developed protofibril. (C) Oligomerization assay. ARN4261 and ARN4224 reduced the amount of Aβ oligomers by 78% and 74%, respectively p<0.001. A compound 69b (GKLVFNmgA) was used as a positive control. 69b is homologous to Aβ sequence 17-21 and contains N-methyl glycine (Nmg), which renders it capable of anti-fibrillization and anti-oligomerization effect. (D) Principle of oligomerization assay. 100 μM Aβ40 was aggregated alone or with the addition of 10 μM of tested compounds [1:10 compound: Ab ratio] for 24 h in conditions promoting oligomers assembly, i.e., DMEM/F-12 medium+0.2% SDS, T=4° C. Prior to SDS-PAGE in non-reducing conditions samples were treated with glutaraldehyde. A strong smear of Aβ oligomers is seen between 37 and 70 KDa markers (arrows) in lane 2, and a dense band below the 25 KDa marker reflects Aβ monomers non-dissociated by 10% polyacrylamide gel. No oligomers above 37 KDa marker are seen in lane 1 containing only Aβ monomers run as a control. […] (E) TEM of Aβ oligomers. […] Yellow arrowhead indicates smaller oligomers.

For series [3], the system named is APP. In words: Acute treatment experiment: brain soluble Aβ40, APP, C99 and C83. The following applies: five days ip, ARN2966 50 mg/kg/day, Compound E 3 mg/kg/day. Format: in vivo, mice. The procedure:
Furthermore, we conducted an acute treatment experiment where six months old female APPSW/PS1dE9 mice (n=3/group) were treated for five days with ARN2966 (50 mg/kg/day), Compound E (3 mg/kg/day) or Vehicle injected intraperitoneally. Mice were killed three hours after the last injections. The level of soluble Aβ40 was measured in the brain aliquots following diethylamine (DEA) extraction. It was lower in ARN2966 and Compound E treated groups by 39% (p<0.05) and 60% (p<0.05) comparing to vehicle treated mice, respectively (p<0.05; FIG. 6E).
FIGS. 6.(A, B) ARN2966 treatment reduces load of Aβ plaques (n=10 ARN2966, n=15 Vehicle). (B) Representative photomicrograph of Th-S stained brain sections from vehicle and ARN2966 treated 10 month old, female APPSW/PS1dE9reveal a difference in the load of Aβ plaques. […] (D) Reduced Aβ40 and Aβ42 levels in FA extracted brain homogenate, which represent the total brain content of Aβ peptides in ARN2966 treated animals (ELISA). (E) Reduced soluble Aβ40 level in DEA extracted brain homogenate, of ARN2966 and Compound E treated mice (ELISA). […] Aβ concentrations in (C) (D) and (E) are given per gram of wet brain. All values are given as mean±SEM. Statistical analysis was done using two-tailed unpaired t-test, following confirmation of normal distribution of data using Shapiro-Wilk test.

Series [4] addresses T1, Aβ40. As to the kind of experiment: Thioflavin-T fibrillization assay. In kind it is biochemical.
Text: Synthetic Aβ 1-40 peptide (sequence: […]) was synthesized at the W.M. Keck Foundation Facility (Yale University, New Haven, Conn.) by solid-phase technique on a p-methyl-benzhydrylamine resin, using a Biosearch SAM 2 synthesizer and purified by high performance liquid chromatography (HPLC) with the use of a reverse-phase support medium (Delta-Bondapak) on a 0.78×30 cm column with a 0-66% linear gradient of acetonitrile in 0.1% (v/v) trifluroacetic acid, as previously described. The peptide content of the eluate was monitored by measurement of its absorption at 214 nm. To verify the sequence and purity of the peptide, linear, time-of-flight mass spectrometry was performed at the Skirball Institute at New York University. For aggregation studies the peptide was diluted in 1,1,1,3,3,3-hexafluoro-2-propanol (HFIP; Sigma St. Loius, Mo.) at a concentration of 10 mM/mL, aliquoted and lyophilized. HFIP treatment renders peptides monomeric with minimal β-sheet content. Lyophilized peptides were stored at −80° C. and resuspended immediately prior to each experiment in the appropriate diluent.
The effect of compounds of the present invention on aggregation of Aβ 1-40 peptide was tested using a Thioflavin-T assay according to previously published methods. Aggregation of Aβ 1-40 incubated alone was measured for comparison. Aβ 1-40 was HFIP treated (as described above) and reconstituted in 100 mM Tris buffer (pH 7.4) to obtain a 100 μmol/L concentration. Stock of investigational compounds (50 mmol/L stock diluted in DMSO) was added to Aβ 1-40 to achieve of a concentration 10 or 100 μmol/L of investigational compound in 100 μmol/L of Aβ 1-40. All incubations were performed over a period of 7 days at 37° C. and the incubation mixture was slowly mixed for 6 hours every 24 h. At the conclusion of the experiment samples containing 15 μg of Aβ 1-40 with and without investigational compounds were added to 1 mL of 50 mM glycine, pH 9.2 and 2 μM of Thioflavin-T (Sigma Chemical, Co.; St. Louis, Mo.). Fluorescence was measured at an excitation of 435 nm and an emission of 485 nm in a Perkin-Elmer LS-50B fluorescence spectrophotometer (Perkin Elmer Instruments, Shelton, Conn.). A time scan of fluorescence was performed and three values after the decay reached a plateau (280, 290, 300 seconds) were averaged. The background fluorescence of 40 μL of Tris buffer added to 2 μM/L of Thioflavin-T solution was subtracted. Samples were run in duplicate. Differences in amount of fibrils formed in the presence of investigational compounds were evaluated by means of one-way ANOVA followed by a Dunnet post-hoc test using Statistica (version 6.1, StatSoft Inc., OK).
as §1

The subject of series [5] is SK-N-SH human neuroblastoma cells. As to the kind of experiment: Toxicity by MTT cell viability and LDH release assays. In kind it is cell-based. Conditions: 100 μM. The procedure:
The effect of 0.01-100 μmol/L concentrations of investigational compounds was tested on the viability of the N2a murine neuroblastoma cell line (American Type Culture Collection, Manassas, Va.). N2a cells were grown in Eagle's minimal essential medium with the addition of 10% fetal bovine serum, streptomycin and gentomycin (Sigma, St. Louis, Mo.), harvested with 2% trypsin and plated at 10,000 cells/100 μL per well in flatbottom, 96-well microtiter plates. The cells were allowed to attach to the plate overnight in an incubator (37° C., 5% CO2) and in the following morning stocks of investigational compounds (50 mmol/L stock diluted in DMSO) were added to cells to achieve the final concentration 0.01-100 μmol/L. Adequate amounts of DMSO (Dimethyl sulfoxide, Sigma, St. Louis, Mo.) were added to control cells. Cells were grown in the presence of investigational compounds for 48 h and then their viability was assessed using a metabolic assay, which is based on cleavage of the yellow tetrazolium salt (MTT) to purple formazan crystals by viable cells. The MTT assay (Roche Molecular Biochemicals, Indianapolis, Ind.) was performed according to the manufacturer's instructions. The results from cell culture neurotoxicity studies were evaluated by one-way analysis of variance, followed by a Dunnett's test as a post hoc analysis.
As shown in FIG. 2 (MTT assay), the compounds were tested for toxicity in SK-N-SH human neuroblastoma cells using MTT cell viability and LDH release (membrane integrity) assays.
Background: LDH leaks from cells whose membrane has failed.

“Also recorded” adds a separate entry of the source.

T1 sequence (P05067 672-711): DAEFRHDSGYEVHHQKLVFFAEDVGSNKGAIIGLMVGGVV

Regarding `C[C@H](NC(=O)Cc1cc(F)cc(F)c1)C(=O)N[C@H](C(=O)OC(C)(C)C)c1ccccc1` [Compound D, N-[N-(3,5-difluorophenacetyl)-L-alanyl]-S-phenylglycine t-butyl ester, reference compound], the “level of APP FL, C99 and C83 in cell lysates” value in the series with APP [1] is “some accumulation of APP FL, and substantial accumulation of C99 and C83; also recorded: modestly increased the APP FL level and substantially increased levels of C83 and C99”.

Consider GKLVFNmgA [69b, reference compound], for which the “amount of oligomers on SDS-PAGE” value at Aβ40 [2] is on record as “reduced amount of oligomers”.

As to `C[C@H](NC(=O)Cc1cc(F)cc(F)c1)C(=O)N[C@H]1N=C(c2ccccc2)c2ccccc2N(C)C1=O` [Compound E, (S,S)-2-[2-(3,5-difluorophenyl)-acetylamino]-N-(1-methyl-2-oxo-5-phenyl-2,3-dihydro-1H-benzo[e][1,4]diazepin-3-yl)-propionamide, reference compound], the “APP, C99 and C83 signal in brain homogenate (western immunoblotting)” value with APP [3] is “modest increase in C99 and C83 signal”. Besides, the “lowering of soluble Aβ40 (DEA extraction) in brain vs vehicle” value in the series on APP [3] (killed three hours after last injection) worked out at 60%. For the same compound, in the series on APP [1], the “level of APP FL, C99 and C83 in cell lysates” value was “some accumulation of APP FL, and substantial accumulation of C99 and C83; also recorded: modestly increased the APP FL level and substantially increased levels of C83 and C99”; the “sAPP (sAPPα and total sAPP stub) in conditioned media” value is “increased level of sAPP stubs”.

In general, EC50 refers to the concentration at which the effect is half-maximal. As a reminder, the Emax is the greatest response seen or fitted, relative to the assay's reference. Consider `COc1ccc(/C=N/Nc2nc3ccccc3n2C)cc1O` [ARN4224], for which, on Aβ40 [4] (100 μM HFIP monomerized synthetic Aβ40, 0.1M Tris pH 7.0, 37° C., 8 days, 0-100 μM compound, read-out: EC50 of fibril reduction), the 50% effective concentration (EC50) was 44 µM. Also, the maximum response (Emax) on Aβ40 [4] (pH 7, read-out: EMAX (% of maximal fibril reduction)) is 55%. Besides, the “reduction of the amount of Aβ oligomers” value at Aβ40 [2] (DMEM/F-12 + 0.2% SDS, 4° C.) amounted to 74%. Also, the “amount of oligomers on SDS-PAGE” value on Aβ40 [2] is on record as “reduced amount of oligomers”. In addition, in series [5], the “toxicity in both MTT and LDH release assays” value is on record as “showed toxicity”.

Values taken from US8658677B2, “Pyridyl-2-methylamino compounds, compositions and uses thereof” (Aria Neurosciences Inc., priority 2011, dated 2014).
